Experimental data from the supplement of paper PMC10307832.

Assays:
Test in all cases: relative viability (nuclei count vs DMSO), 5 days (fraction); higher = more cells survive
[1] = compound: C1=CC2=C(C=C(C(=C2N=C1)O)N=NC3=CC4=C(C=C3)C=C(C=C4)S(=O)(=O)O)S(=O)(=O)O + CS(=O)(=O)CCNCc1ccc(-c2ccc3ncnc(Nc4ccc(OCc5cccc(F)c5)c(Cl)c4)c3c2)o1 [Lapatinib] (partner 2 µM)
How it was run: (§1)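 Lung cancer cell lines, seeded in 1536-well plates, were treated the following day by pin tool with a single drug or with five library-drug doses (not always all listed) in √10 steps on top of a fixed anchor-drug dose. Cells were fixed and nuclei stained in one step after 5 days, and nuclei were counted. Relative viability is the nuclei count for treated wells divided by that for vehicle wells, reported as medians of duplicate plates.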

[2] = compound: C1=CC2=C(C=C(C(=C2N=C1)O)N=NC3=CC4=C(C=C3)C=C(C=C4)S(=O)(=O)O)S(=O)(=O)O + O=C(c1cc(Cc2n[nH]c(=O)c3ccccc23)ccc1F)N1CCN(C(=O)C2CC2)CC1 [Olaparib] (partner 8 µM)
How it was run: as §1

[3] = compound: C1=CC2=C(C=C(C(=C2N=C1)O)N=NC3=CC4=C(C=C3)C=C(C=C4)S(=O)(=O)O)S(=O)(=O)O + Cc1cc(Nc2cc(N3CCN(C)CC3)nc(Sc3ccc(NC(=O)C4CC4)cc3)n2)n[nH]1 [Tozasertib] (partner 0.1 µM)
How it was run: as §1

[4] = compound: C1=CC2=C(C=C(C(=C2N=C1)O)N=NC3=CC4=C(C=C3)C=C(C=C4)S(=O)(=O)O)S(=O)(=O)O + CC(C)C[C@H](NC(=O)[C@H](Cc1ccccc1)NC(=O)c1cnccn1)B(O)O [Bortezomib] (partner 0.002 µM)
How it was run: as §1

Cell Line | relative viability ([1]; first compound 0.08 µM) | relative viability ([1]; first compound 0.253 µM) | relative viability ([1]; first compound 0.8 µM) | relative viability ([1]; first compound 2.53 µM) | relative viability ([1]; first compound 8 µM) | relative viability ([2]; first compound 0.08 µM) | relative viability ([2]; first compound 0.253 µM) | relative viability ([2]; first compound 0.8 µM) | relative viability ([2]; first compound 2.53 µM) | relative viability ([2]; first compound 8 µM) | relative viability ([3]; first compound 0.08 µM) | relative viability ([3]; first compound 0.253 µM) | relative viability ([3]; first compound 0.8 µM) | relative viability ([3]; first compound 2.53 µM) | relative viability ([3]; first compound 8 µM) | relative viability ([4]; first compound 0.08 µM) | relative viability ([4]; first compound 0.253 µM) | relative viability ([4]; first compound 0.8 µM) | relative viability ([4]; first compound 2.53 µM) | relative viability ([4]; first compound 8 µM)
RERF-LC-KJ | 0.873 | 0.851 | 0.854 | 0.835 | 0.788 | 0.889 | 0.964 | 0.987 | 0.959 | 1.02 | 0.506 | 0.601 | 0.512 | 0.519 | 0.509 | 1.39 | 1.1 | 1.08 | 1.2 | 1.14
NCI-H1650 | 0.753 | 0.739 | 0.714 | 0.821 | 0.734 | 0.825 | 0.677 | 0.781 | 0.812 | 0.894 | 0.4 | 0.347 | 0.45 | 0.407 | 0.231 | 0.196 | 0.212 | 0.22 | 0.193 | 0.202
BEN | 0.956 | 0.623 | 0.669 | 0.766 | 0.654 | 0.868 | 1.13 | 1.05 | 1.27 | 0.974 | 0.55 | 0.535 | 0.572 | 0.548 | 0.47 | 0.967 | 0.75 | 0.776 | 0.875 | 0.873
NCI-H2170 | 0.267 | 0.272 | 0.271 | 0.292 | 0.286 | 0.639 | 0.557 | 0.595 | 0.614 | 0.576 | 0.678 | 0.714 | 0.753 | 0.774 | 0.638 | – | – | – | – | –
NCI-H1299 | 0.959 | 0.913 | 0.944 | 0.956 | 0.939 | 1.01 | 0.95 | 0.935 | 0.956 | 0.976 | – | – | – | – | – | 1.06 | 0.99 | 0.999 | 1.02 | 1.03
EBC-1 | 0.202 | 0.242 | 0.27 | 0.2 | 0.238 | 0.808 | 0.634 | 0.694 | 0.758 | 0.732 | – | – | – | – | – | 0.648 | 0.515 | 0.585 | 0.494 | 0.636
NCI-H1648 | – | – | – | – | – | – | 0.793 | – | – | 0.893 | 0.432 | 0.422 | 0.615 | 0.533 | 0.507 | – | – | – | – | –
NCI-H1792 | 0.996 | 0.853 | 0.834 | 0.916 | 0.913 | 0.579 | 0.253 | 0.355 | 0.507 | 0.432 | – | – | – | – | – | 1.09 | 0.931 | 0.886 | 0.976 | 0.908
ChaGo-K-1 | – | – | – | – | – | 0.445 | 0.405 | 0.438 | 0.422 | 0.341 | 0.238 | 0.198 | 0.205 | 0.205 | 0.244 | 1.05 | 1.03 | 0.986 | 0.958 | 0.557
LK-2 | 0.946 | 0.883 | 0.839 | 0.939 | 0.718 | 0.892 | 0.678 | 0.581 | 0.74 | 0.728 | 0.174 | 0.189 | 0.18 | 0.178 | 0.148 | – | – | – | – | –
NCI-H1944 | 0.8 | 0.753 | 0.765 | 0.753 | 0.565 | 0.407 | 0.402 | 0.426 | 0.416 | 0.33 | 0.263 | 0.241 | 0.263 | 0.241 | 0.237 | – | – | – | – | –
NCI-H1793 | 0.769 | 1 | – | 0.651 | 0.59 | 1 | 0.762 | 0.883 | 0.952 | 0.891 | 0.436 | 0.301 | 0.395 | 0.449 | 0.396 | – | – | – | – | –
A549 | 1.08 | 0.991 | 0.972 | 0.947 | 1.01 | 0.469 | 0.331 | 0.299 | 0.313 | 0.135 | – | – | – | – | – | – | – | – | – | –
NCI-H358 | 0.436 | 0.393 | 0.469 | 0.486 | 0.483 | 0.656 | 0.555 | 0.551 | 0.57 | 0.569 | 0.126 | 0.0956 | 0.0998 | 0.103 | 0.102 | – | – | – | – | –
NCI-H1563 | 0.957 | 1.02 | 0.916 | 0.976 | 1.13 | – | – | – | – | – | – | – | – | – | – | 0.848 | 0.952 | 0.959 | 0.857 | 0.994
NCI-H1395 | 1.14 | 1.18 | 1.19 | 1.01 | 0.966 | 0.498 | 0.47 | 0.489 | 0.469 | 0.402 | 0.788 | 0.739 | 0.695 | 0.745 | 0.772 | – | – | – | – | –
NCI-H522 | – | – | – | – | – | 0.601 | 0.625 | 0.564 | 0.561 | 0.708 | 0.583 | 0.556 | 0.609 | 0.539 | 0.631 | – | – | – | – | –
IA-LM | 0.681 | 0.718 | 0.707 | 0.796 | 0.793 | 1.01 | 0.777 | 0.788 | 0.747 | 0.952 | – | – | – | – | – | 0.93 | 0.843 | 0.803 | 0.819 | 0.923
NCI-H1703 | 1.36 | 0.886 | 1.06 | 1.01 | 1.01 | 0.3 | – | 0.339 | 0.475 | 0.41 | – | – | – | – | – | 0.316 | 0.306 | 0.355 | 0.39 | 0.26
NCI-H441 | – | – | – | – | – | 0.617 | 0.57 | 0.586 | 0.531 | 0.595 | 0.636 | 0.685 | 0.644 | 0.712 | 0.605 | 0.576 | 0.385 | – | 0.484 | 0.718
LCLC-103H | – | – | – | – | – | 0.774 | 0.721 | 0.735 | 0.779 | 0.753 | 0.514 | 0.504 | 0.457 | 0.477 | 0.501 | 1.14 | 1.14 | 1.12 | 1.15 | 1.02
SW 900 | – | – | – | – | – | 1.1 | 0.826 | 0.75 | 0.878 | 0.757 | 0.566 | 0.559 | 0.536 | 0.599 | 0.469 | – | – | – | – | –
